Measured values published in US20090054493A1, “THIAZOLE DERIVATIVES AS PPAR DELTA LIGANDS AND THEIR MANUFACTURING PROCESS” (priority 2005, published 2009).
Read-outs that look alike come from different tables or passages of the source.

Assays:
[1] = target: T1, PPARα (Homo sapiens, UniProt Q07869); experiment: Transfection assay (luciferase reporter) in CV-1 cells, PPARα; type: cell-based; details: full-length PPAR plasmid, luciferase normalized with β-galactosidase
T1 construct: full-length PPARs plasmid DNA; expressed in transfected cells; host or cells: CV-1 cells
T1 sequence (Q07869 1-468): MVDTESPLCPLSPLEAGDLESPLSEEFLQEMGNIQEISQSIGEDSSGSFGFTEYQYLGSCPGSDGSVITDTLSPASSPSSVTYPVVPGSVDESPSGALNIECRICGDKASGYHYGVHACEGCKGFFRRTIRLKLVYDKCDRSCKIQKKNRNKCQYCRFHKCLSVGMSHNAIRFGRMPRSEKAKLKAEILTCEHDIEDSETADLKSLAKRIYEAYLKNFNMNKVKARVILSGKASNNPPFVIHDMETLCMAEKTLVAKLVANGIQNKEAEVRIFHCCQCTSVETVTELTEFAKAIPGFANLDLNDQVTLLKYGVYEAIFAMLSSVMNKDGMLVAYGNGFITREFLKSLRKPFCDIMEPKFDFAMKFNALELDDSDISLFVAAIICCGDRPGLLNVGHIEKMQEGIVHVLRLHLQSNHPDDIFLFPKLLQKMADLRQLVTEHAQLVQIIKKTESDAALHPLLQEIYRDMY
Description: (§1) The compounds prepared in Examples were tested for PPARδ activity by a transfection assay. In addition, the compounds were tested for selectivity for PPARα and PPARγ, the subtypes of PPARs, and also tested for toxicity by a MTT assay.
(§2) A transfection assay was performed using CV-1 cells. The culture of the cells was performed using a DMEM medium (10% FBS, DBS (delipidated) and 1% penicillin/streptomycin) on a 96-well plate in a 5% carbon dioxide-containing incubator at 37° C. The test was performed in four steps consisting of cell inoculation, transfection, treatment of the compounds, and analysis of results. Specifically, CV-1 cells were inoculated onto a 96-well plate at a concentration of 5,000 cells/well, and after 24 hours, the cells were transfected. In the cell transfection, full-length PPARs plasmid DNA, reporter DNA that has luciferase activity and thus allows the identification of PPARs, and β-galactosidase DNA that provides the information of transfection efficiency, were used as transfection reagents. Each of the compounds developed in the present invention was dissolved in dimethylsulfoxide (DMSO) and transfected into the cells at various concentrations using media. The cells were cultured in an incubator for 24 and then lysed with lysis buffer. The lysed cells were measured for luciferase and β-galactosidase activities using a luminometer and a microplate reader. The measured luciferase values were normalized with the β-galactosidase values and graphed. From the graph, EC50 values were determined.

[2] = target: T2, PPARγ (Homo sapiens, UniProt P37231); experiment: Transfection assay (luciferase reporter) in CV-1 cells, PPARγ; type: cell-based; details: full-length PPAR plasmid, luciferase normalized with β-galactosidase
T2 construct: full-length PPARs plasmid DNA; expressed in transfected cells; host or cells: CV-1 cells
T2 sequence (P37231 1-505): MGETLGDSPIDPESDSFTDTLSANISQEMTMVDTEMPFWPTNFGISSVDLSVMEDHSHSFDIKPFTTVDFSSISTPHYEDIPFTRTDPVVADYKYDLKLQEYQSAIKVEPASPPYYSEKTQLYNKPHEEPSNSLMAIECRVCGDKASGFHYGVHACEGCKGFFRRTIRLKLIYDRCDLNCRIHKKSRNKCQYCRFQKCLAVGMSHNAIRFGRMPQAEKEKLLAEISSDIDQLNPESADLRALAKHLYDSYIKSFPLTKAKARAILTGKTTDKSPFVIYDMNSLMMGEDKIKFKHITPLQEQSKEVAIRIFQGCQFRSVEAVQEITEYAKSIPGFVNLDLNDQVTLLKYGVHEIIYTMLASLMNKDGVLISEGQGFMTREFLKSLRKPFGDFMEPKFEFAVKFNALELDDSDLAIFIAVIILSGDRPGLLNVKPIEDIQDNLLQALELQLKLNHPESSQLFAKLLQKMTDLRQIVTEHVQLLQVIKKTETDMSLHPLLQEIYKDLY
Description: as §1
as §2, with “The test was performed in four steps consisting of cell inoculation, transfection, treatment of the compounds, and analysis of results.” left out

[3] = target: T3, PPARδ (Homo sapiens, UniProt Q03181); experiment: Transfection assay (luciferase reporter) in CV-1 cells, PPARδ; type: cell-based; design: full-length PPARs plasmid DNA; expressed in transfected cells; host or cells: CV-1 cells; details: full-length PPAR plasmid, luciferase normalized with β-galactosidase
T3 sequence (Q03181 1-441): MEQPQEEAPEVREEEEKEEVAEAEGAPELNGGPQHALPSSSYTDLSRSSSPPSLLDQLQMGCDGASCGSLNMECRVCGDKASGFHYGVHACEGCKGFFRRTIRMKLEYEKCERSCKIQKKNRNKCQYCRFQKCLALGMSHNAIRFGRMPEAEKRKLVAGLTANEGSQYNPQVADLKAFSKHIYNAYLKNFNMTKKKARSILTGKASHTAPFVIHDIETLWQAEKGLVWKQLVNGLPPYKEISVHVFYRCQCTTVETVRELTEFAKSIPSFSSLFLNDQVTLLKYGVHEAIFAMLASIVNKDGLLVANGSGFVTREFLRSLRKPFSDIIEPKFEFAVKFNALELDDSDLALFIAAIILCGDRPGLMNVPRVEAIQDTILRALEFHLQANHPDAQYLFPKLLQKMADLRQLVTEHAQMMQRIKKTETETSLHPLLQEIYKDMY
Description: as §1
as §2, with “The test was performed in four steps consisting of cell inoculation, transfection, treatment of the compounds, and analysis of results.” left out

[4] = MTT assay, cytotoxicity; type: cell-based; details: African green monkey, CV-1 cells, read-out: LC50 Cytotoxicity
Description: The compounds of Examples 47-97 according to the present invention were tested for cytotoxicity using a MTT assay. MTT is a water-soluble yellow substance, but if it is introduced into living cells, it will be degenerated into a water-insoluble purple crystal due to dehydrogenase contained in mitochondria. If this substance is dissolved in dimethylsulfoxide and then measured for absorbance at 550 nm, cytotoxicity can be assayed. The test method is as follows.
CV-1 cells were first inoculated onto a 96-well plate at a concentration of 5,000 cells/well. The inoculated cells were cultured in a 5% carbon dioxide-containing humidified incubator at 37° C. for 24 hours, and then treated with the inventive compounds at various concentrations. After 24 hours of culture, a MTT reagent was added to the cultured cells. After 15 minutes of culture, the resulting purple crystal was dissolved in dimethylsulfoxide and then measured for absorbance using a microplate reader. From the measured absorbance, cytotoxicity was assayed.

[5] = target: T4, PPARγ (Mus musculus, UniProt P37238); details: test on rodents, background art; cited from earlier work
T4 sequence (P37238 1-505): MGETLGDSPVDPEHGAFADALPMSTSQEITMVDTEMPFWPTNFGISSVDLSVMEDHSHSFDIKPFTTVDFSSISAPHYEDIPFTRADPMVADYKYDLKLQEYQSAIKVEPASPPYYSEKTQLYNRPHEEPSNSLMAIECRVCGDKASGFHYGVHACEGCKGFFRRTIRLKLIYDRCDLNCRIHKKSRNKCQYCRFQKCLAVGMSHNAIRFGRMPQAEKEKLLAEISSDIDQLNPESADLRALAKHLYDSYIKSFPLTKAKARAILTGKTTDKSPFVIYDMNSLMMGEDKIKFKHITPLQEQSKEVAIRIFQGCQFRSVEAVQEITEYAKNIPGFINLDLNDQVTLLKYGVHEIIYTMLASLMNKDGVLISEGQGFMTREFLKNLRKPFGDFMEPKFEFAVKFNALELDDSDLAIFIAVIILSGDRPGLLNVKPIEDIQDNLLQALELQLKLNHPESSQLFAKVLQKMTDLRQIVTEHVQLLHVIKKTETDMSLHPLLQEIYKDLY

[6] = target: T3, PPARδ; details: background art, cited from earlier work

Cc1cc(SC(Cc2ccc(F)cc2F)c2sc(-c3ccc(C(F)(F)F)c(F)c3)nc2C)ccc1OCC(=O)O (centres unmarked) [Example 96, 2-[4-[1-[2-[3-fluoro-4-(trifluoromethyl)phenyl]-4-methylthiazol-5-yl]-2-(2,4-difluorophenyl)ethylthio]-2-methylphenoxy]acetic acid]
EC50 [1]: > 10000 nM
EC50 PPARγ [2]: ia
EC50 [3]: 4.8 nM
CC50 at 24 h [4]: > 10000 nM

Cc1cc(SC(Cc2cc(F)ccc2Cl)c2sc(-c3ccc(C(F)(F)F)c(F)c3)nc2C)ccc1OCC(=O)O (centres unmarked) [Example 97, 2-[4-[2-(2-chloro-5-fluorophenyl)-1-[2-[3-fluoro-4-(trifluoromethyl)phenyl]-4-methylthiazol-5-yl]ethylthio]-2-methylphenoxy]acetic acid]
EC50 PPARα [1]: ia
EC50 PPARγ [2]: ia
EC50 [3]: 17.4 nM
CC50 at 24 h [4]: > 30000 nM

CCCc1c(OCCCOc2ccc(OCC(=O)O)cc2)ccc(C(C)=O)c1O [Example L-165041]
selectivity for PPARγ [5]: almost no selectivity
selectivity for hPPARδ than PPARα and PPARγ [6]: 10 fold
EC50 ([6]; hPPARδ): 530 nM
